According to ChEMBL document CHEMBL1201862, “PubChem BioAssay data set” (2004):
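Assay format: 96-well plates, 48-hour exposure. GI50 is the concentration that inhibits growth by half.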 The source made the active and inactive calls. Cut-off read from the data, not from the text of the source: active = GI50 up to about 1.1 µM and inactive = higher.

What was measured:
Assay in all cases: inhibition of tumour cell growth, NCI panel, 48 h
OVCAR-5 = test system: OVCAR-5
UACC-257 = test system: UACC-257
SNB-75 = test system: SNB-75
SN12C = test system: SN12C
HCT-15 = test system: HCT-15
SF-295 = test system: SF-295
HL-60 = test system: HL-60
SK-OV-3 = test system: SK-OV-3
HT-29 = test system: HT-29
NCI-H226 = test system: NCI-H226
UACC-62 = test system: UACC-62
HCC 2998 = test system: HCC 2998
NCI-H522 = test system: NCI-H522
M14 = test system: M14
NCI-H460 = test system: NCI-H460
SR = test system: SR
SK-MEL-2 = test system: SK-MEL-2
U-251 = test system: U-251
RPMI-8226 = test system: RPMI-8226
ACHN = test system: ACHN
TK-10 = test system: TK-10
RXF 631 = test system: RXF 631
LXFL 529 = test system: LXFL 529
SF-268 = test system: SF-268
MOLT-4 = test system: MOLT-4
SK-MEL-28 = test system: SK-MEL-28
OVCAR-4 = test system: OVCAR-4
COLO 205 = test system: COLO 205
HOP-92 = test system: HOP-92
HOP-18 = test system: HOP-18
RXF 393 = test system: RXF 393
K562 = test system: K562
Malme-3M = test system: Malme-3M
DMS-114 = test system: DMS-114
CAKI-1 = test system: CAKI-1
SF-539 = test system: SF-539
KM-20L2 = test system: KM-20L2
OVCAR-3 = test system: OVCAR-3
NCI-H23 = test system: NCI-H23
M19-MEL = test system: M19-MEL
OVCAR-8 = test system: OVCAR-8
786-0 = test system: 786-0
SNB-78 = test system: SNB-78
A498 = test system: A498
LOX IMVI = test system: LOX IMVI
HCT-116 = test system: HCT-116
IGROV-1 = test system: IGROV-1
SW-620 = test system: SW-620
A549 = test system: A549
UO-31 = test system: UO-31
DMS-273 = test system: DMS-273
HOP-62 = test system: HOP-62
KM12 = test system: KM12
CCRF-CEM = test system: CCRF-CEM
SK-MEL-5 = test system: SK-MEL-5
EKVX = test system: EKVX
SNB-19 = test system: SNB-19
DLD-1 = test system: DLD-1

## CCOC(=O)c1c(/C=N\Nc2ccccc2)nc2ccccc2c1-c1ccccc1
OVCAR-5
  GI50: > 100 µM (inactive)
UACC-257
  GI50: 70.3 µM (inactive)
SNB-75
  GI50: 46.5 µM (inactive)
SN12C
  GI50: 38.1 µM (inactive)
HCT-15
  GI50: 13.6 µM
SF-295
  GI50: 61.5 µM (inactive)
HL-60
  GI50: 15 µM (inactive)
SK-OV-3
  GI50: > 100 µM (inactive)
HT-29
  GI50: 37.6 µM (inactive)
NCI-H226
  GI50: 45.7 µM (inactive)
UACC-62
  GI50: 25 µM (inactive)
HCC 2998
  GI50: 21.8 µM (inactive)
NCI-H522
  GI50: 24.9 µM (inactive)
M14
  GI50: 36.7 µM (inactive)
NCI-H460
  GI50: 37.8 µM (inactive)
SR
  GI50: 19.2 µM (inactive)
SK-MEL-2
  GI50: 40.8 µM (inactive)
U-251
  GI50: 38.2 µM (inactive)
RPMI-8226
  GI50: 20.1 µM (inactive)
ACHN
  GI50: 32.7 µM (inactive)
TK-10
  GI50: > 100 µM (inactive)
RXF 631
  GI50: 41.2 µM (inactive)
LXFL 529
  GI50: 27.2 µM (inactive)
SF-268
  GI50: 56.5 µM (inactive)
MOLT-4
  GI50: 20.7 µM (inactive)
SK-MEL-28
  GI50: 70.8 µM (inactive)
OVCAR-4
  GI50: 29.9 µM (inactive)
COLO 205
  GI50: 24 µM (inactive)
HOP-92
  GI50: 45.4 µM (inactive)
HOP-18
  GI50: 31 µM (inactive)
RXF 393
  GI50: 65.8 µM (inactive)
K562
  GI50: 29.5 µM (inactive)
Malme-3M
  GI50: 35.1 µM (inactive)
DMS-114
  GI50: 41.6 µM (inactive)
CAKI-1
  GI50: 68.9 µM (inactive)
SF-539
  GI50: 68.5 µM (inactive)
KM-20L2
  GI50: 38.5 µM (inactive)
OVCAR-3
  GI50: 31.7 µM (inactive)
NCI-H23
  GI50: 39.7 µM (inactive)
M19-MEL
  GI50: 26.8 µM (inactive)
OVCAR-8
  GI50: 32.1 µM (inactive)
786-0
  GI50: 40.6 µM (inactive)
SNB-78
  GI50: 51.1 µM (inactive)
A498
  GI50: 60.4 µM (inactive)
LOX IMVI
  GI50: 35.4 µM (inactive)
HCT-116
  GI50: 42 µM (inactive)
IGROV-1
  GI50: 67.1 µM (inactive)
SW-620
  GI50: 38.1 µM (inactive)
A549
  GI50: 50.9 µM (inactive)
UO-31
  GI50: 34.4 µM (inactive)
DMS-273
  GI50: 25 µM (inactive)
HOP-62
  GI50: 39 µM (inactive)
KM12
  GI50: 43.9 µM (inactive)
CCRF-CEM
  GI50: 19.2 µM (inactive)
SK-MEL-5
  GI50: 31.2 µM (inactive)
EKVX
  GI50: 61.9 µM (inactive)
SNB-19
  GI50: 79.1 µM (inactive)

## O=C(/C=C\c1ccccc1O)c1ccc(O)cc1O
OVCAR-5
  GI50: > 100 µM (inactive)
UACC-257
  GI50: > 100 µM (inactive)
SNB-75
  GI50: 0.0128 µM (active)
SN12C
  GI50: > 100 µM (inactive)
HCT-15
  GI50: > 100 µM
SF-295
  GI50: > 100 µM (inactive)
HL-60
  GI50: 81.8 µM (inactive)
SK-OV-3
  GI50: > 100 µM (inactive)
HT-29
  GI50: > 100 µM (inactive)
NCI-H226
  GI50: > 100 µM (inactive)
UACC-62
  GI50: > 100 µM (inactive)
HCC 2998
  GI50: > 100 µM (inactive)
NCI-H522
  GI50: > 100 µM (inactive)
M14
  GI50: > 100 µM (inactive)
NCI-H460
  GI50: > 100 µM (inactive)
SR
  GI50: > 100 µM (inactive)
SK-MEL-2
  GI50: > 100 µM (inactive)
U-251
  GI50: > 100 µM (inactive)
RPMI-8226
  GI50: 62.8 µM (inactive)
ACHN
  GI50: > 100 µM (inactive)
TK-10
  GI50: > 100 µM (inactive)
RXF 631
  GI50: > 100 µM (inactive)
LXFL 529
  GI50: > 100 µM (inactive)
SF-268
  GI50: > 100 µM (inactive)
MOLT-4
  GI50: > 100 µM (inactive)
SK-MEL-28
  GI50: > 100 µM (inactive)
OVCAR-4
  GI50: 54.6 µM (inactive)
COLO 205
  GI50: 28.6 µM (inactive)
HOP-92
  GI50: > 100 µM (inactive)
HOP-18
  GI50: 55.7 µM (inactive)
RXF 393
  GI50: > 100 µM (inactive)
K562
  GI50: > 100 µM (inactive)
Malme-3M
  GI50: > 100 µM (inactive)
DMS-114
  GI50: > 100 µM (inactive)
CAKI-1
  GI50: > 100 µM (inactive)
SF-539
  GI50: > 100 µM (inactive)
KM-20L2
  GI50: > 100 µM (inactive)
OVCAR-3
  GI50: > 100 µM (inactive)
NCI-H23
  GI50: > 100 µM (inactive)
M19-MEL
  GI50: > 100 µM (inactive)
OVCAR-8
  GI50: > 100 µM (inactive)
786-0
  GI50: > 100 µM (inactive)
SNB-78
  GI50: > 100 µM (inactive)
A498
  GI50: > 100 µM (inactive)
LOX IMVI
  GI50: > 100 µM (inactive)
HCT-116
  GI50: > 100 µM (inactive)
IGROV-1
  GI50: > 100 µM (inactive)
SW-620
  GI50: 10.8 µM (inactive)
A549
  GI50: > 100 µM (inactive)
UO-31
  GI50: > 100 µM (inactive)
DMS-273
  GI50: > 100 µM (inactive)
HOP-62
  GI50: > 100 µM (inactive)
DLD-1
  GI50: > 100 µM (inactive)
KM12
  GI50: > 100 µM (inactive)
CCRF-CEM
  GI50: 87.7 µM (inactive)
SK-MEL-5
  GI50: > 100 µM (inactive)
EKVX
  GI50: > 100 µM (inactive)
SNB-19
  GI50: > 100 µM (inactive)
